The source of these data is patent publication EP2990415B1, “Cyclic beta defensins analogs for the treatment of infections” (Ceinge Biotecnologie Avanzate S.C. a R.L., priority 2014, dated 2016).

Bridge positions count the residues as written; N and C are the ends. Ends that are not written are not given here. Peptide text beside a SMILES is read from it.

For orientation: MIC means the smallest concentration in the dilution series that meets the test's criterion for growth inhibition. A high value points to a less susceptible organism. In general, IC50 refers to the concentration that inhibits the measured activity by half.

The subject of assay [1] is P. aeruginosa, E. coli and E. faecalis. Type of assay: cell-based. The protocol: (§1) A CFU assay of the antibacterial activity of the peptides of the present invention against Pseudomonas aeruginosa ATCC (American Type Culture Collection, Manassas, VA, USA) 27853, Enterococcus faecalis ATCC 29212 and Escherichia coli ATCC 25922 was performed as follows. The strains were grown in aerobic conditions in tryptic soy broth (Difco Laboratories, Detroit, MI, USA) at 37°C and incubated in the presence of hBDs for 2 h at 37°C. We used two concentrations of peptides, i.e., 2.5 µM and 12.5 µM. For salt-dependence assay, 0, 50, 100 and 200 mM NaCl were included in the incubation buffer as previously described (1). Each assay was performed in triplicate. Bactericidal activity (mean and SD of three assays) is expressed as the ratio between colonies counted and the number of colonies on a control plate. The minimal inhibitory concentration (MIC) of the peptide SEQ ID No. 25 was determined with a modified version of the microbroth dilution assay of the National Committee for Clinical Laboratory Standards using a final inoculum of 10^5 CFU/ml. The following peptide concentrations were used: 100.0, 50.0, 25.0, 12.5, 6.25, 3.12 and 1.56 µM.

Assay [2] deals with HSV-1. Conditions: reported elsewhere; cited from earlier work.
The test system of assay [3] is Pseudomonas aeruginosa ATCC 27853. Type of assay: cell-based. Conditions: 12.5 µM. As to the method: as §1
In assay [4] the test system is Enterococcus faecalis ATCC 29212. Type of assay: cell-based. Particulars: 12.5 µM. As to the method: as §1
Assay [5] deals with Escherichia coli ATCC 25922. Type of assay: cell-based. Conditions: 12.5 µM. The protocol:
as §1

Assay [6] has as its system HSV-1. Briefly: Inhibition of HSV infectivity on Vero cell monolayers (co-exposure, virus pre-exposure, cell pre-exposure, post-exposure). Type of assay: cell-based. As to the method: Vero cells were grown in Dulbecco's modified Eagle's medium (DMEM) supplemented with 10% fetal calf serum. HSV-1 carrying a lacZ gene driven by the cytomegalovirus (CMV) IE-1 promoter to express beta-galactosidase was propagated as described elsewhere (Galdiero S, Falanga A, Vitiello M, D'Isanto M, Cantisani M, Kampanaraki A, Benedetti E, Browne H, Galdiero M. Peptides. 2008 Sep;29(9):1461-71). All experiments were conducted in parallel with no-peptide controls. […] Non-penetrated viruses were inactivated by citrate buffer at pH 3.0. Monolayers were fixed, stained with 5-bromo-4-chloro-3-indolyl-beta-D-galactopyranoside (X-gal) and plaque numbers were scored. Experiments were performed in triplicate and the percentage of inhibition was calculated with respect to no-peptide control experiments; ii) For "virus pre-exposure" experiments, […] monolayers; iii) For "cell pre-exposure" experiments, Vero cells were incubated with 20 µM of peptides for 30 min at 4°C and infected with serial dilutions of HSV-1 for 45 min at 37°C; and iv) For "post-exposure" experiments, Vero cell monolayers were incubated with virus for 45 minutes at 37°C and afterwards the peptide was added to the inoculum followed by an additional incubation period of 30 minutes at 37°C.
The antiviral activity was evaluated in co-exposure experiments (with cell, virus, and peptide at zero time), virus pre-exposure experiments (virus plus peptide before cell infection), cell pre-exposure experiments (cell plus peptide before virus infection) and post-treatment (cell plus virus before peptide addition) in order to evaluate in which phase, if any, the peptides could inhibit virus infectivity. […] Both in the co-exposure and virus pre-treatment experiments, the oxidized SEQ. […]

For the molecule `CC[C@H](C)[C@@H]1NC(=O)[C@H](CCCCN)NC(=O)[C@H]([C@@H](C)O)NC(=O)[C@H](Cc2ccccc2)NC(=O)[C@H]([C@@H](C)CC)NC(=O)[C@@H]2CCCN2C(=O)[C@@H](N)CSSC[C@@H](C(=O)NCC(=O)NCC(=O)N[C@@H](CCCNC(=N)N)C(=O)N[C@@H](CCCNC(=N)N)C(=O)N[C@@H](CCCCN)C(=O)N[C@@H](CCCCN)C(N)=O)NC(=O)[C@H]([C@@H](C)O)NC(=O)CNC(=O)[C@H](CCC(N)=O)NC1=O` [SEQ ID No. 25] (H-CPIFTKIQGTCGGRRKK-NH2; disulfide 1-11), in assay [1], the MIC lay within 12.5 to 25.0 µM.
In the case of “GIINTLQKYYCRVRGGRCAVLSCLPKEEQIGKCSTRGRKCCRRKK (disulfide 11-40, 18-33, 23-41 (inferred)) [hBD3]”, in the assay with HSV-1 [2], the “antiviral activity of oxidized versus reduced form” value was “the same antiviral activity”. Further, the antibacterial effect result in assay [3], in assay [4] and in assay [5] was “strong antibacterial effect” each time. The Peptide inhibition is listed as 53.5 in the assay with HSV-1 [6] (Cell Pre-treatment at 4°C, 1 uM); 41 in the assay with HSV-1 [6] (Cell Pre-treatment at 4°C, 5 uM); 27 in the assay with HSV-1 [6] (Cell Pre-treatment at 4°C, 10 uM); 22 with HSV-1 [6] (Cell Pre-treatment at 4°C, 20 uM); 18 in the assay on HSV-1 [6] (Cell Pre-treatment at 4°C, 50 uM); 1 in the assay on HSV-1 [6] (Cell Pre-treatment at 4°C, 150 uM). Also, the Peptide inhibition in the assay with HSV-1 [6] (Cell Pre-treatment at 4°C, 1000 uM) is on record as 5; with HSV-1 [6] (Co-treatment at 37°C, 1 uM), 79; in the assay on HSV-1 [6] (Co-treatment at 37°C, 5 uM), 60; in the assay with HSV-1 [6] (Co-treatment at 37°C, 10 uM) it was 43; in the assay with HSV-1 [6] (Co-treatment at 37°C, 20 uM) it was 32; with HSV-1 [6] (Co-treatment at 37°C, 50 uM) it was 17.5. For the same molecule, the Peptide inhibition was 6.5 in the assay with HSV-1 [6] (Co-treatment at 37°C, 150 uM); 9 in the assay on HSV-1 [6] (Co-treatment at 37°C, 1000 uM); 64 with HSV-1 [6] (Virus Pre-treatment at 37°C, 1 uM); 52 in the assay with HSV-1 [6] (Virus Pre-treatment at 37°C, 5 uM); 33 with HSV-1 [6] (Virus Pre-treatment at 37°C, 10 uM); 31 in the assay with HSV-1 [6] (Virus Pre-treatment at 37°C, 20 uM). The Peptide inhibition in the assay on HSV-1 [6] (Virus Pre-treatment at 37°C, 50 uM) was determined as 20; in the assay with HSV-1 [6] (Virus Pre-treatment at 37°C, 150 uM), 8.5; in the assay on HSV-1 [6] (Virus Pre-treatment at 37°C, 1000 uM) it was 10. In addition, the 50% inhibitory concentration (IC50) with HSV-1 [6] (antiviral activity against HSV-1 on Vero cells) worked out at 10 µM.
In the case of “hBD1: human β-defensin 1, wild-type reference peptide (DHYNCVSSGGQCLYSACPIFTKIQGTCYRGKAKCCK; ends and bridges not checked; cysteine pairing not given here; UniProt P60022 33-68, looked up)”, the antibacterial effect result in assay [3], in assay [4] and in assay [5] was “strong antibacterial effect” throughout.
